Values quoted from earlier work in patent publication US6845777B2, “Composition to reduce or quit smoking addiction” (priority 2001, dated 2005).

Assays:
[1] = average adult

## CN1CCCC1c1cccnc1 (centres unmarked) [Nicotine]
[1]
  lethal unit dose: about 60 mg
In vivo
  nicotine from the intestine that reaches the bloodstream in a not metabolized form: about 30%
  peak levels in the arteries: approximately 40 micro-grams per milliliter of blood
  plasma half-life: 30 min and 120 min
Inhalation of tobacco smoke
  nicotine inhaled from a cigarette that is absorbed into the bloodstream: ≤ 90%
